Experiment [1] has as its system RelA/p65 binding to the CK-1 site of the G-CSF promoter. The experiment is described as follows: Chromatin immunoprecipitation (ChIP) assay in RAW264.7 cells. The experiment is classed as cell-based, mouse. The conditions noted are these: SAA 1 μM or TNFα 50 ng/ml. The method, then:
To investigate the mechanism for SAA-induced G-CSF production, the level of G-CSF transcript in SAA-stimulated BMDM was determined. […] The induction of G-CSF transcript peaked at 4 h after SAA stimulation. Since transcription of the G-CSF gene involves NF-κB binding to the RelA/p65 consensus element in the CK-1 site of the G-CSF promoter (Dunn et al., 1994; Hareng and Hartung, 2002), the role of NF-κB in SAA-stimulated G-CSF expression was determined. […] Using oligonucleotide probe based on the sequence of the CK-1 site (−161 to −152 in the G-CSF promoter), a protein •DNA complex (FIG. 2C) was identified. […] Inclusion of a RelA/p65 antibody blocking peptide in the assay abrogated the immunoprecipitation (FIG. 2D).
ChIP assay: Reagents were obtained from Upstate Biotechnology, and ChIP assay was performed as per manufacturers specifications with minor modifications. Briefly, a total of 1×10^7 RAW264.7 cells were harvested and resuspended in a serum-free DMEM medium absence or presence of 1 μM SAA, or 50 ng/ml of TNFα, and incubated for 30 or 60 min at 37° C. Following stimulation, cells were crosslinked and then washed and resuspended in SDS-lysis buffer, and were sonicated (4 times for 10 s each, with a setting at ‘4’ on a Fisher Sonic 60 dismembrenator). […] The PCR products were analyzed on a 2.5% agarose gel.

Experiment [2] relates to mouse bone marrow derived macrophages (BMDM). The experiment is described as follows: G-CSF secretion in mouse BMDM (ELISA). The experiment is classed as cell-based. The conditions noted are these: for G-CSF secretion by FPRL1 agonists: 16 h. The method, then:
SAA induces G-CSF expression in monocytes and macrophages: To determine whether SAA plays a role in neutrophilia, the ability of SAA to stimulate G-CSF expression was investigated. Human peripheral blood monocytes (PBMC) were incubated with SAA, and the concentration of secreted G-CSF in the culture medium was determined at various time points after stimulation. The concentration of SAA used in this experiment (1 μM) was well within its physiological range (0.08 μM to 80 μM). […] Since subsequent studies used mice for measurement of G-CSF secretion and neutrophilia, SAA-induced G-CSF expression in mouse bone marrow derived macrophages (BMDM) was determined, of which 98% were F4/80^+ CD14^+ based on flow cytometry analysis. […] The basal level of G-CSF remained stable at approximately 42 pg/ml/10^6 cells over the entire course of incubation.
It was next determined whether induction of G-CSF expression was a primary function of SAA or resulted from contaminating LPS in the SAA preparation. The LPS concentration in the recombinant SAA preparation was ≦0.1 ng/μg protein, translating into ≦1.14 ng/ml LPS in a typical experiment with 1 μM SAA. LPS at this or 10-fold higher concentrations was tested for its effect on the expression of G-CSF. […] Given that most proteins are heat labile while LPS is heat resistant, the ability of heat-treated SAA (1 μM) and LPS (1 μg/ml) to stimulate G-CSF secretion in mouse BMDM was examined. After boiling for 25 min, LPS retained its ability to induce G-CSF production by ˜83%. […] In parallel experiments, polymyxin B, an amphiphilic cyclic polycationic peptide that specifically binds to LPS and blocks the cytokine-inducing effect of LPS (Stokes et al., 1989), was used to treat SAA or LPS prior to incubation with BMDM. […] Under the same experimental conditions, polymyxin B reduced LPS-stimulated G-CSF secretion by more than 70%.
It was previously shown that FPRL1 is involved in SAA-induced IL-8 production in human neutrophils (He et al., 2003). It has also been shown that SAA binds to FPRL1 and stimulates the production of matrix metalloproteinase (O'Hara et al., 2004). […] A role of TLR2 in SAA-stimulated G-CSF expression was examined.
Cell preparation and culture: Human peripheral blood monocytes were prepared from fresh, heparinized venous blood by Ficoll-Hypaque density-gradient centrifugation. Blood drawing followed a protocol approved by the Institutional Review Board at the University of Illinois at Chicago. Purified monocytes (>93% CD14^+ by flow cytometry) were kept in nonadherent condition in RPMI 1640 containing 0.5% FBS and maintained at 37° C. Mouse macrophages were differentiated from bone marrow cells. Mouse bone marrow cells were aspirated from the femurs of 8-12-week-old mice and cultured at 37° C. in 5% CO2 in RPMI 1640 medium containing 10% FBS, 15% L-cell conditional medium, 10 mM HEPES, 2 mM L-glutamine, 100 IU/ml penicillin, and 50 μg/ml streptomycin. The medium was changed every three days. Macrophages (about 98% F4/80+ by flow cytometry) were obtained after 7 days of culture. The mouse macrophage cell line RAW264.7 cells were maintained in DMEM medium supplemented with 10% FBS, 10 mM HEPES, 2 mM L-glutamine, 100 IU/ml penicillin, and 50 μg/ml streptomycin. TLR2-HeLa cells were generated by transfection of HeLa cell with the expression construct pUNO-hTLR2 (InvivoGen). Stable transfectants were selected with Blasticidin at 20 μg/ml for 2 weeks. Mock-transfected HeLa cells were generated similarly, with a pUNO empty vector. Cells were maintained in DMEM supplemented with 10% heat-inactivated FBS, 2 mM L-glutamine, 100 IU/ml penicillin, and 50 μg/ml streptomycin. Expression of TLR2 was confirmed using an anti-TLR2 antibody (eBioscience) and FTTC-conjugated anti-mouse antibody, on a FACSCalibur flow cytometer (Becton Dickinson). FIGS. 12 and 13 are plasmid maps of pUNO-hTLR2 and pNF-κB-Luc, respectively. […]
Background: In an ELISA, binding on a coated surface is turned into a signal by an enzyme label.

For a further experiment, the target named is T1, TLR2 (Homo sapiens, UniProt O60603).
T1 construct: host or cells: HeLa
T1 sequence (O60603 21-784): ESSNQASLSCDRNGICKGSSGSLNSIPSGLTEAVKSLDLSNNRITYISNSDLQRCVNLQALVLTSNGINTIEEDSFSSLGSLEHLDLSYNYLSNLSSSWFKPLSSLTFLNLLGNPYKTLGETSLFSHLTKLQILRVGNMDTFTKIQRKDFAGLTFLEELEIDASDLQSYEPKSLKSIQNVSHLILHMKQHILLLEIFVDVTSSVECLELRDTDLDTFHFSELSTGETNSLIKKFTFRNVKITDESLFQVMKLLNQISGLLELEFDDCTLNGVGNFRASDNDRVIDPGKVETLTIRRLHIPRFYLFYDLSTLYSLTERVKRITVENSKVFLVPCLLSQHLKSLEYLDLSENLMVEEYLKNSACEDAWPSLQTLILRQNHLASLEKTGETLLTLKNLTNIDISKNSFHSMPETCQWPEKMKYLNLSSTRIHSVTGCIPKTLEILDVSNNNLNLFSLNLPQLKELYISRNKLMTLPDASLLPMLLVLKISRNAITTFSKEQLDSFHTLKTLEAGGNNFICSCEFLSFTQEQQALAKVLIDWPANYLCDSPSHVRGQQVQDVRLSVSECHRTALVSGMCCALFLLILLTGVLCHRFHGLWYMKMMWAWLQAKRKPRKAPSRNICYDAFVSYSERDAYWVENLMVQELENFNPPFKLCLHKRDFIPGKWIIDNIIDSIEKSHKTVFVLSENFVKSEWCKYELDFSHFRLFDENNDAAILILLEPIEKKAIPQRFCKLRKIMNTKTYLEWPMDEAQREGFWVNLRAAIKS
T1 sequence (Q15399 25-786 partner): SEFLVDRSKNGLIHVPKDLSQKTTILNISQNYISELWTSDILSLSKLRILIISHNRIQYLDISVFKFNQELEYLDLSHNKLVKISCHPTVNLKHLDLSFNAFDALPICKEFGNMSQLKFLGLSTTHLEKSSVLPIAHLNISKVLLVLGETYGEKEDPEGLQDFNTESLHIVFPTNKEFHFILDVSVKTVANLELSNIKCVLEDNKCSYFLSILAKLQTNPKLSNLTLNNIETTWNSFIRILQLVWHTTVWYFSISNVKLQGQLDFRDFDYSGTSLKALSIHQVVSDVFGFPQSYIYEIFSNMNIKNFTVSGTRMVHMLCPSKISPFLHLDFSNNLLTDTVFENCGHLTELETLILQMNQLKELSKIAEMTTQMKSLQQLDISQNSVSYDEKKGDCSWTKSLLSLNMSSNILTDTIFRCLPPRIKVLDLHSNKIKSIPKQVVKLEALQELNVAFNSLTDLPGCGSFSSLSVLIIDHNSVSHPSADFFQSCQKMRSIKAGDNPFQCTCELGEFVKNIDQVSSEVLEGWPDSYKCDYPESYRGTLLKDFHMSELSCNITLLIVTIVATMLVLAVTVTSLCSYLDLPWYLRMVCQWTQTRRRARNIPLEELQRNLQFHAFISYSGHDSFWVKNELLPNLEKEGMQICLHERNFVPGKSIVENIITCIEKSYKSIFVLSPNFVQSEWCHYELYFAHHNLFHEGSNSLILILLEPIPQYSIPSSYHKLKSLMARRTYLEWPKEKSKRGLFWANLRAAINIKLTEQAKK
The experiment is described as follows: NF-κB luciferase reporter assay in TLR2-HeLa cells. The settings on record: HDL preincubation. The experiment is classed as cell-based. As to the method:
To determine whether TLR2 is a receptor for SAA, a TLR2-expressing cell line was prepared in HeLa cells, which contain very little endogenous TLR2 transcript (FIG. 6A, upper panel). […] TLR2 is a class I transmembrane protein that contains an extracellular ligand binding domain (ectodomain), a transmembrane domain and a cytoplasmic domain consisting of the Toll/IL-1/receptor/Resistance (TIR) motif. Studies have shown that TLR2 forms heterodimers with TLR1 and TLR6 (Ozinsky et al., 2000), which display different preference for TLR2 ligands (Hoebe et al., 2005; Takeuchi et al., 2002). The C-terminal TIR domain is conserved among TLRs and responsible for TLR signaling (O'Neill and Bowie, 2007; Takeda and Akira, 2004). To assess the relative contributions of TLRs to SAA signaling, TLR1, TLR2, TLR4 and TLR6 were overexpressed in the TLR2-HeLa cells, and their effects on SAA-induced NF-κB luciferase reporter activity were determined. […] In addition, the TIR domain deletion mutants (ΔTIR) of these receptors were expressed, which are negative regulators of TLR signaling.
Methods for the generation of TLR2-HeLa stable cell line: HeLa cells stably transfected with human TLR2 gene were generated by transfecting HeLa cells with the expression construct pUNO-hTLR2 (InvivoGen, San Diego, Calif.; GenBank accession number for human TLR2 cDNA is NM_003264) and selected with Blasticidin at concentration of 20 μg/ml for 2 weeks. The control HeLa cells were generated at the same time by transfecting with empty pUNO vector. Cells were maintained in DMEM supplemented with 10% heat-inactivated FB S, 2 mM L-glutamine, 100 IU/ml penicillin, and 50 μg/ml streptomycin. Expression of TLR2 was confirmed using an anti-TLR2 antibody (eBioscience) and FTTC-conjugated anti-mouse antibody, on a FACSCalibur flow cytometer (Becton Dickinson). The TLR2-HeLa and control cells were then co-transfected with 5xNF-κB reporter plasmids (pNF-κB-Luc, Stratagene, Cedar Creek, Tex., catalog no. 219077) and empty SFFV vector bearing a neomycin resistant gene. The TLR2-HeLa/NF-κB reporting cells were obtained after selecting with G418 at concentration of […] for 2-3 weeks. Cells (5′10^5/ml) were grown in DMEM supplemented with 10% heat-inactivated FBS, 2 mM L-glutamine, 100 IU/ml penicillin, and […] streptomycin.
Methods for using HeLa cells in reporter assay: Mock-transfected HeLa and TLR2-HeLa cells were maintained at ˜5×10^5 cells/well in six-well plates, transfected with plasmid expression vectors coding for a 3×κB-directed luciferase reporter, pCMVβ vector DNA (Promega) and/or other expression constructs as indicated. Total DNA concentration was adjusted to 1 μg/sample by addition of empty vector DNA. Transient transfection was performed using LipofectAmine Plus reagent (Invitrogen). […]
(Reporter assays use an easily measured gene product as a stand-in for the process of interest.)

For TNFα [reference compound], in experiment [1], the “pull-down of CK-1 DNA fragment by anti-RelA/p65 antibody” value is “able to pull-down the CK-1 DNA fragment”. “LESIFRSLLFRVM [MMK-1, reference compound]”: the “G-CSF secretion by FPRL1 agonists” value in experiment [2] (BMDM) is “unable to stimulate G-CSF secretion”.

For Polymyxin B [reference compound], the “reduction of LPS-stimulated G-CSF secretion” value in experiment [2] (polymyxin B 50 μg/ml pretreatment of LPS 1 μg/ml, BMDM) is “more than 70%”. In addition, the “effect on potency of SAA in stimulating G-CSF expression” value in experiment [2] (polymyxin B 50 μg/ml pretreatment of SAA, BMDM) is listed as “minimal effect”. As to pertussis toxin [reference compound], the “inhibition of SAA-induced G-CSF secretion” value in experiment [2] (BMDM pretreated overnight with pertussis toxin up to 200 ng/ml, then SAA 16 h) is given as “no significant inhibition”.

Regarding WKYMVm [reference compound], in experiment [2] (BMDM), the “G-CSF secretion by FPRL1 agonists” value is “unable to stimulate G-CSF secretion”.

B1: L7A: SAA with Leucine to Alanine mutation at position 7 (protein)
chain: RSFFSFAGEAFDGARDMWRAYSDMREANYIGSDKYFHARGNYDAAKRGPGGAWAAEVITDARENIQRFFGHGAEDSLADQAANEWGRSGKDPNHFRPAGLPEKY
Regarding B1, the “effect of L7A mutation of SAA on the reduction by HDL of NF-κB activation” value with TLR2 is “partially reversed the reduction effect by HDL”.
